From patent publication US20250214991A1 (Oncopia Therapeutics, Inc. d/b/a/ SK Life Science Labs, priority 2022, published 2025)

Assays:
[1] = molecular target: CRBN/DDB1 (Homo sapiens (Human), UniProt Q96SW2); assay: IC50 measurements for binding to CRBN/DDB1 (HTRF); settings: His tagged CRBN+DDB, Cy5-labeled Thalidomide probe, one hour
Method in brief: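 HTRF competition binding with 2 nM His-tagged CRBN-DDB1 complex, 60 nM Cy5-thalidomide probe and 0.4 nM anti-His Tb cryptate in 50 mM HEPES pH 7.5, 1 mM TCEP, 0.01% Brij-35, 50 mM NaCl, 0.1% BSA. Read after 1 h at room temperature; IC50 from four-parameter dose-response fit.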

[2] = molecular target: T1, IKZF2 (Homo sapiens (Human), UniProt Q96SW2+Q9UKS7); assay: In vitro IKZF2 FACS Assay in Jurkat cells; type: cell-based; settings: 24 hrs; for DC50: half maximal degradation concentration; for Dmax: maximal degradation percentage
T1 sequence (Q9UKS7 whole entry): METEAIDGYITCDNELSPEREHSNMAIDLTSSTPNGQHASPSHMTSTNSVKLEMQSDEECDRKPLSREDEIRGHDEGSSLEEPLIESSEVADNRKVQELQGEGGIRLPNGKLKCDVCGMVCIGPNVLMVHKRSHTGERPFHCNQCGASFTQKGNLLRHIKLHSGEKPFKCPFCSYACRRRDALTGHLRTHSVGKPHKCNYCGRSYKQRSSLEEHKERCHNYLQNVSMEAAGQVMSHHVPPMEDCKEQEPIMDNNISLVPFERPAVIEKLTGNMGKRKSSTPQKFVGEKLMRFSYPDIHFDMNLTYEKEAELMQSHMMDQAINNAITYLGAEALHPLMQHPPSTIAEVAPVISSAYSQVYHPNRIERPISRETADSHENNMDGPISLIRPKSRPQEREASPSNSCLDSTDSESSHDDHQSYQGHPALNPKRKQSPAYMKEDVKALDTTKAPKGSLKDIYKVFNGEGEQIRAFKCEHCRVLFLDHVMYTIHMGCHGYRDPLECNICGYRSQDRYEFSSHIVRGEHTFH
T1 sequence (Q96SW2 whole entry): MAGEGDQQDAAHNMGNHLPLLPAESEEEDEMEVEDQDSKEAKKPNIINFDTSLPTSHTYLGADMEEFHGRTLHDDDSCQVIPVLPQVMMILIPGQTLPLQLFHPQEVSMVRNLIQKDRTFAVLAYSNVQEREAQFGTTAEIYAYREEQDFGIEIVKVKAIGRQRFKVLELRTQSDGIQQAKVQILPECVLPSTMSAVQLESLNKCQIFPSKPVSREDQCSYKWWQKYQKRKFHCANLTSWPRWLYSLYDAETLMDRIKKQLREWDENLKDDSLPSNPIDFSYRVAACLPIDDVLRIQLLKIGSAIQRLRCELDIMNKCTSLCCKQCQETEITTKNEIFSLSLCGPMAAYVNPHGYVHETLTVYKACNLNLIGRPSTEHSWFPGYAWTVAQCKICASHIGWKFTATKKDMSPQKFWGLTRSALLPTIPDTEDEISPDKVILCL
T1 sequence (Q16531 2-1140 partner): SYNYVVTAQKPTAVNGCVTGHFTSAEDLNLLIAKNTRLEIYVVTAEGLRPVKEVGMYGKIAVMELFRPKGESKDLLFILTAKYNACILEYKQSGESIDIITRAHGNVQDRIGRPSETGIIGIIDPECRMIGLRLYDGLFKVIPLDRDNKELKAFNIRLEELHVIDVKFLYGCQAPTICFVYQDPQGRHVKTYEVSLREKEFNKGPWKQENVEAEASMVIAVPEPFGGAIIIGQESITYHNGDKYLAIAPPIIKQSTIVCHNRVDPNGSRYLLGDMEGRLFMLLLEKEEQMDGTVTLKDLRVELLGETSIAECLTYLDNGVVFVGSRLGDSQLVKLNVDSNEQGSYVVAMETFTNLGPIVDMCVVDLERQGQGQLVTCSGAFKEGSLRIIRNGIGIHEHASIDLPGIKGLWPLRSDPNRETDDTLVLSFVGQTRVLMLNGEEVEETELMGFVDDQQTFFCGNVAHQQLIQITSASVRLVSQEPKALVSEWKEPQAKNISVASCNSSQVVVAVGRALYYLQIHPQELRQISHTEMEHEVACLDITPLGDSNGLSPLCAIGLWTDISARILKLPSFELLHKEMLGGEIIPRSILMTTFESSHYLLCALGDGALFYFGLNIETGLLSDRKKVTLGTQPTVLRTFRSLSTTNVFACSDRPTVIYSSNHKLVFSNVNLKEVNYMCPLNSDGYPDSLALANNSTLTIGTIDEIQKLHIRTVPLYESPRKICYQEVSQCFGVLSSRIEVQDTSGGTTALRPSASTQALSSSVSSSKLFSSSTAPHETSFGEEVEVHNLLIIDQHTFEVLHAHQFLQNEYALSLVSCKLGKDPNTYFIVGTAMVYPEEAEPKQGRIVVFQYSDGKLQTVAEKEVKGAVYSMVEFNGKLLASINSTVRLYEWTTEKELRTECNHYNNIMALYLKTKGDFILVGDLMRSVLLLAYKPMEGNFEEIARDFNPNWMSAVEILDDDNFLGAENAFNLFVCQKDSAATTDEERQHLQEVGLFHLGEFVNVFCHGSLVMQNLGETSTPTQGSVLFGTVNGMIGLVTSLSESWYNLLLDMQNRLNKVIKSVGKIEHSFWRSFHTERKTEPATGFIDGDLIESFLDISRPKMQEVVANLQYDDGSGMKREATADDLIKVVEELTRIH
Experimental: In vitro IKZF2 FACS Assay
DC50, A: <1 nM; B: 1-10 nM; C: 10-100 nM; D: 100-1000 nM; E: >1000 nM. Dmax, A: >80%; B: 60-80%; C: 40-60%; D: 20-40%; E: <20%.

[3] = molecular target: T1, IKZF2; assay: In vitro IKZF2 HiBit Assay (HEK293T Flp-in-HiBiT cells); type: cell-based; settings: HEK293T Flp-in-HiBiT cells, 6 hrs incubation; for DC50: read-out: IKZF2 HiBit DC50; for Dmax: HEK-293T, read-out: IKZF2 HiBit Dmax (%)
Method in brief: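 HEK293T Flp-in cells carrying an endogenous N-terminal HiBiT tag on IKZF2 were exposed to compound for 6 h at 0.1% DMSO. The dilution series was 11 doses at 3-fold, diluted from 1 mM. Nano-Glo HiBiT lytic luminescence, normalized to DMSO, gave DC50 for 50% degradation and Dmax across the concentration range, both reported in letter bins.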

[4] = molecular target: IKZF1 (Homo sapiens (Human), UniProt Q13422+Q96SW2); assay: In vitro IKZF1 HiBit Assay (HEK293T Flp-in-HiBiT-IKZF1 stable cell line); type: cell-based; settings: HEK293T Flp-in-HiBiT-IKZF1 stable cell line, 6 hrs incubation; for DC50: read-out: IKZF1 HiBit DC50; for Dmax: HEK-293T, read-out: IKZF1 HiBit Dmax (%)
IKZF1, sequence (Q13422 whole entry): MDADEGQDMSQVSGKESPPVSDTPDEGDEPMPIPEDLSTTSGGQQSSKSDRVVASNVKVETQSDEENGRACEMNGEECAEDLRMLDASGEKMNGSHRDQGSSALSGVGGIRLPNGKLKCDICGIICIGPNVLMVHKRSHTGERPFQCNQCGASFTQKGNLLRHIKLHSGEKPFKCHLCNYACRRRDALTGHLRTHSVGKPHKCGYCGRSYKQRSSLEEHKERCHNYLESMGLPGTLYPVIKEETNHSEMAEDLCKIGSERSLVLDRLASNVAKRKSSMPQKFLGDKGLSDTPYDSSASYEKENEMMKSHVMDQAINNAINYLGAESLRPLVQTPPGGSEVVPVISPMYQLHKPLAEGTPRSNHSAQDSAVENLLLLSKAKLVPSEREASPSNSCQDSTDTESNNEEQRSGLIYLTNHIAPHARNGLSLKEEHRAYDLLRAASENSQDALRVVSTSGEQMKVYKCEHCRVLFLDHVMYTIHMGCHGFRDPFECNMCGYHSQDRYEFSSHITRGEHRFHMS
IKZF1, sequence (Q96SW2 whole entry): as the sequence (Q96SW2 whole entry) above
IKZF1, sequence (Q16531 2-1140 partner): as the sequence (Q16531 2-1140 partner) above
Method in brief: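 HEK293T Flp-in cells carrying N-terminal HiBiT-tagged IKZF1 were exposed to compound (0.1% DMSO) for 6 h at 3000 cells/well. HiBiT luminescence was read after lytic LgBiT detection. DC50 and Dmax were taken from DMSO-normalized dose-response curves.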

CRBN/DDB1, sequence (Q96SW2 whole entry, species assumed): as the sequence (Q96SW2 whole entry) above
CRBN/DDB1, sequence (Q16531 whole entry partner, species assumed): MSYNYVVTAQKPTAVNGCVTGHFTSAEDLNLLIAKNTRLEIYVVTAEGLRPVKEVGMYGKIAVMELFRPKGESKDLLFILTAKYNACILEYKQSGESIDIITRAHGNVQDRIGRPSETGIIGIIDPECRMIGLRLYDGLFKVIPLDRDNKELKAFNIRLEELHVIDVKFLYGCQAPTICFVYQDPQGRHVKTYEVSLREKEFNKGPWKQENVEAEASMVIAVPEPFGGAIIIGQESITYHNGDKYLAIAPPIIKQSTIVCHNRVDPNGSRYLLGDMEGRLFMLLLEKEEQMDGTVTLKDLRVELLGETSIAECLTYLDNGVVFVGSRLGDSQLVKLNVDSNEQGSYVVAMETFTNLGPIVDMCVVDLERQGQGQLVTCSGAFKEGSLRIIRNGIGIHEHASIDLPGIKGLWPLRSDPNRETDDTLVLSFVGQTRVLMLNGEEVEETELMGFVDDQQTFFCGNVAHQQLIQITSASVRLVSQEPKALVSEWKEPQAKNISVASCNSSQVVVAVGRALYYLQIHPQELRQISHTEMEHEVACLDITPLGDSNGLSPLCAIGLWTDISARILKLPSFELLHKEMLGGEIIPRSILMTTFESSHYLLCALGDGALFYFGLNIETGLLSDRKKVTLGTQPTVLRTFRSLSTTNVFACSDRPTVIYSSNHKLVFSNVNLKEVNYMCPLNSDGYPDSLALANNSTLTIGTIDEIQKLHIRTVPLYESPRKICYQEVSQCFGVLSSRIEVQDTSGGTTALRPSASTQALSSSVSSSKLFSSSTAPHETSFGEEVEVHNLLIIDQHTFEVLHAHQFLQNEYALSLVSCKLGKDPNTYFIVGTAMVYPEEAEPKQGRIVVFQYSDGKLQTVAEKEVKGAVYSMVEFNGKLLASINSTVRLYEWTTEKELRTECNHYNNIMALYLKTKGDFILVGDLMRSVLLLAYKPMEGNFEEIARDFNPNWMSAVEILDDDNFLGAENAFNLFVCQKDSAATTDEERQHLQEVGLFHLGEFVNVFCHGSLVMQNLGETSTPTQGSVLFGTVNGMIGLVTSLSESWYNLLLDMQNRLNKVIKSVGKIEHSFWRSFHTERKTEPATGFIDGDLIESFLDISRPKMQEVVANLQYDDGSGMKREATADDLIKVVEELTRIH

SMILES | IC50 [1] | DC50 [2] | Dmax [2] | DC50 [3] | Dmax [3] | DC50 [4] | Dmax [4]
O=C1CCC(N2Cc3cc(-c4ncc5cc(CN6CCCC6)ccn45)ccc3C2=O)C(=O)N1 (stereo not drawn) [Example 52, 3-(1-oxo-5-(7-(pyrrolidin-1-ylmethyl)imidazo[1,5-a]pyridin-3-yl)isoindolin-2-yl) piperidine-2,6-dione] | 500 to 1000 nM | 10 to 100 nM | 40 to 60% | 1 to 10 nM | 60 to 80% | > 10000 nM | < 20%
O=C1CCC(N2Cc3cc(-c4ccc(CN5CCCC5)c5cncn45)ccc3C2=O)C(=O)N1 (stereo not drawn) [Example 54, 3-(1-oxo-5-(8-(pyrrolidin-1-ylmethyl)imidazo[1,5-a]pyridin-5-yl)isoindolin-2-yl) piperidine-2,6-dione] | 1000 to 5000 nM | < 1 nM | > 80% | 1000 to 10000 nM | < 20% | > 10000 nM | < 20%
Cn1ccc2c(CN3CCCC3)cc(-c3ccc4c(c3)CN(C3CCC(=O)NC3=O)C4=O)nc21 (stereo not drawn) [Example 55, 3-(5-(1-methyl-4-(pyrrolidin-1-ylmethyl)-1H-pyrrolo[2,3-b]pyridin-6-yl)-1-oxoisoindolin-2-yl) piperidine-2,6-dione] | 100 to 500 nM | < 1 nM | > 80% | < 1 nM | > 80% | > 10000 nM | 20 to 40%
Cn1ccc2c(CN3CCC3)cc(-c3ccc4c(c3)CN(C3CCC(=O)NC3=O)C4=O)nc21 (stereo not drawn) [Example 56, 3-(5-(4-(azetidin-1-ylmethyl)-1-methyl-1H-pyrrolo[2,3-b]pyridin-6-yl)-1-oxoisoindolin-2-yl) piperidine-2,6-dione] | < 100 nM | 1 to 10 nM | 60 to 80% | < 1 nM | > 80% | > 10000 nM | 20 to 40%
O=C1CCC(N2Cc3cc(-c4cc(CN5CCCC5)c5cn[nH]c5n4)ccc3C2=O)C(=O)N1 (stereo not drawn) [Example 105, 3-(1-oxo-5-(4-(pyrrolidin-1-ylmethyl)-1H-pyrazolo[3,4-b]pyridin-6-yl)isoindolin-2-yl) piperidine-2,6-dione] | 500 to 1000 nM | 1 to 10 nM | > 80% | 1 to 10 nM | > 80% | 1000 to 10000 nM | 20 to 40%
O=C1CCC(N2Cc3cc(-c4cc(CN5CCC(F)CC5)c5cc[nH]c5n4)ccc3C2=O)C(=O)N1 (stereo not drawn) [Example 116, 3-(5-(4-((4-fluoropiperidin-1-yl)methyl)-1H-pyrrolo[2,3-b]pyridin-6-yl)-1-oxoisoindolin-2-yl) piperidine-2,6-dione] | 100 to 500 nM | 1 to 10 nM | > 80% | < 1 nM | > 80% | 1 to 10 nM | 20 to 40%
O=C1CCC(N2Cc3cc(-c4cc(CN5CC(F)C5)c5cc[nH]c5n4)ccc3C2=O)C(=O)N1 (stereo not drawn) [Example 117, 3-(5-(4-((3-fluoroazetidin-1-yl)methyl)-1H-pyrrolo[2,3-b]pyridin-6-yl)-1-oxoisoindolin-2-yl) piperidine-2,6-dione] | 100 to 500 nM | 1 to 10 nM | > 80% | 1 to 10 nM | > 80% | > 10000 nM | < 20%
O=C1CCC(N2Cc3cc(-c4cc(CN5CCCC5)c5ccn(C6CC6)c5n4)ccc3C2=O)C(=O)N1 (stereo not drawn) [Example 119, 3-(5-(1-cyclopropyl-4-(pyrrolidin-1-ylmethyl)-1H-pyrrolo[2,3-b]pyridin-6-yl)-1-oxoisoindolin-2-yl) piperidine-2,6-dione] | 1000 to 5000 nM | 1 to 10 nM | > 80% | < 1 nM | > 80% | 1000 to 10000 nM | 20 to 40%
O=C1CCC(N2Cc3cc(-c4cc(CN5CC6COCC(C6)C5)c5cc[nH]c5n4)ccc3C2=O)C(=O)N1 (stereo not drawn) [Example 121, 3-(5-(4-((3-oxa-7-azabicyclo[3.3.1]nonan-7-yl)methyl)-1H-pyrrolo[2,3-b]pyridin-6-yl)-1-oxoisoindolin-2-yl) piperidine-2,6-dio] | 1000 to 5000 nM | 10 to 100 nM | > 80% | 1 to 10 nM | > 80% | > 10000 nM | < 20%
O=C1CCC(N2Cc3cc(-c4cc(CN5CCCC5)c5ccn(C6CCC6)c5n4)ccc3C2=O)C(=O)N1 (stereo not drawn) [Example 128, 3-(5-(1-cyclobutyl-4-(pyrrolidin-1-ylmethyl)-1H-pyrrolo[2,3-b]pyridin-6-yl)-1-oxoisoindolin-2-yl) piperidine-2,6-dione] | 100 to 500 nM | 1 to 10 nM | > 80% | < 1 nM | > 80% | 10 to 100 nM | 20 to 40%
O=C1CCC(N2Cc3cc(-c4cc(CN5CCCC5)c5ccn(C6COC6)c5n4)ccc3C2=O)C(=O)N1 (stereo not drawn) [Example 129, 3-(5-(1-(oxetan-3-yl)-4-(pyrrolidin-1-ylmethyl)-1H-pyrrolo[2,3-b]pyridin-6-yl)-1-oxoisoindolin-2-yl) piperidine-2,6-dione] | 100 to 500 nM | 1 to 10 nM | > 80% | < 1 nM | > 80% | 10 to 100 nM | 20 to 40%
O=C1CCC(N2Cc3cc(-c4cc(CN5CCC(O)C5)c5ccn(C6COC6)c5n4)ccc3C2=O)C(=O)N1 (stereo not drawn) [Example 158, 3-(5-(4-((3-hydroxypyrrolidin-1-yl)methyl)-1-(oxetan-3-yl)-1H-pyrrolo[2,3-b]pyridin-6-yl)-1-oxoisoindolin-2-yl) piperidine-2,6-dione] | 100 to 500 nM | 10 to 100 nM | > 80% | 10 to 100 nM | 60 to 80% | > 10000 nM | < 20%
O=C1CCC(N2Cc3cc(-c4cc(CN5CC(F)C5)c5ccn(C6COC6)c5n4)ccc3C2=O)C(=O)N1 (stereo not drawn) [Example 161, 3-(5-(4-((3-fluoroazetidin-1-yl)methyl)-1-(oxetan-3-yl)-1H-pyrrolo[2,3-b]pyridin-6-yl)-1-oxoisoindolin-2-yl) piperidine-2,6-dione] | 100 to 500 nM | 10 to 100 nM | 60 to 80% | 1 to 10 nM | 60 to 80% | > 10000 nM | < 20%
O=C1CCC(N2Cc3cc(-c4cc(CN5CCC(O)CC5)c5ccn(C6COC6)c5n4)ccc3C2=O)C(=O)N1 (stereo not drawn) [Example 162, 3-(5-(4-((4-hydroxypiperidin-1-yl)methyl)-1-(oxetan-3-yl)-1H-pyrrolo[2,3-b]pyridin-6-yl)-1-oxoisoindolin-2-yl) piperidine-2,6-dione] | 100 to 500 nM | 10 to 100 nM | > 80% | 10 to 100 nM | 60 to 80% | 100 to 1000 nM | 20 to 40%
O=C1CCC(N2Cc3cc(-c4cc(CN5CCC(CO)CC5)c5ccn(C6COC6)c5n4)ccc3C2=O)C(=O)N1 (stereo not drawn) [Example 163, 3-(5-(4-((4-(hydroxymethyl)piperidin-1-yl)methyl)-1-(oxetan-3-yl)-1H-pyrrolo[2,3-b]pyridin-6-yl)-1-oxoisoindolin-2-yl) piperidine-2,6-dione] | 100 to 500 nM | 1 to 10 nM | > 80% | 1 to 10 nM | 60 to 80% | 100 to 1000 nM | 20 to 40%
O=C1CCC(N2Cc3cc(-c4cc(CN5CCC(CO)C5)c5ccn(C6COC6)c5n4)ccc3C2=O)C(=O)N1 (stereo not drawn) [Example 164, 3-(5-(4-((3-(hydroxymethyl)pyrrolidin-1-yl)methyl)-1-(oxetan-3-yl)-1H-pyrrolo[2,3-b]pyridin-6-yl)-1-oxoisoindolin-2-yl) piperidine-2,6-dione] | 100 to 500 nM | 10 to 100 nM | > 80% | 10 to 100 nM | 60 to 80% | 100 to 1000 nM | 20 to 40%
O=C1CCC(N2Cc3cc(-c4cc(CN5CCCC5)c5ccn(C6CCOC6)c5n4)ccc3C2=O)C(=O)N1 (stereo not drawn) [Example 170, 3-(1-oxo-5-(4-(pyrrolidin-1-ylmethyl)-1-(tetrahydrofuran-3-yl)-1H-pyrrolo[2,3-b]pyridin-6-yl)isoindolin-2-yl) piperidine-2,6-dione] | 500 to 1000 nM | 10 to 100 nM | 60 to 80% | 1 to 10 nM | 60 to 80% | > 10000 nM | < 20%
O=C1CCC(N2Cc3cc(-c4cc(CN5CCCC5)c5ccn(C6CS(=O)(=O)C6)c5n4)ccc3C2=O)C(=O)N1 (stereo not drawn) [Example 176, 3-(5-(1-(1,1-dioxidothietan-3-yl)-4-(pyrrolidin-1-ylmethyl)-1H-pyrrolo[2,3-b]pyridin-6-yl)-1-oxoisoindolin-2-yl) piperidine-2,6-dione] | 500 to 1000 nM | 1 to 10 nM | 60 to 80% | 1 to 10 nM | > 80% | 10 to 100 nM | 20 to 40%
